According to PMC8716824, “Design, Synthesis and Anti-Lung Cancer Evaluation of 1, 2, 3-Triazole Tethered Dihydroartemisinin-Isatin Hybrids” (Frontiers in Pharmacology, 2021):
Like-named read-outs stand apart in the source and are kept apart here.

Key:
A549 lung cancer cells = assay: MTT antiproliferative assay, A549; type: cell-based; details: Homo sapiens
Method: (§1) The antiproliferative activity of 1,2,3-triazole tethered dihydroartemisinin-isatin hybrids 8a-c and 9a-k against A549, multidrug-resistant A549/DOX and A549/DDP lung cancer cell lines as well as cytotoxicity towards mouse embryonic fibroblast cells NIH/3T3 were assessed by 3-(4,5-dimethylthiazol-2-yl)-2,5-diphenyltetrazolium bromide (MTT) assay, and half maximal inhibitory concentration (IC50) values were listed in Table 2. A549, A549/DOX, and A549/DDP lung cancer cells (2 × 10^3) were plated in each well of a 96-well plate and were allowed to adhere and spread for 24 h. The 1,2,3-triazole tethered dihydroartemisinin-isatin hybrids 8a-c and 9a-k were added to a final concentration of 100 μM, and the cells were cultured for 24 h at 37°C. 3-(4,5-dimethyl-2-thiazolyl)-2,5-diphenyltetrazolium bromide (MTT) solution (10 µL) was added to each well, and the cultures were incubated for an additional 4 h. A further 100 µL of […] was added and incubation continued overnight. The absorbance at 540 nm was determined in each well with a 96-well plate reader. The growth of the treated cells was compared with that of untreated cells.

[1] = system: A549, A549/DOX and A549/DDP lung cancer cell lines; assay: MTT antiproliferative assay, ranges pooled over lung cancer cell lines; type: cell-based
Method: as §1

[2] = system: mouse embryonic fibroblast cells NIH/3T3; assay: MTT cytotoxicity assay, NIH/3T3; type: cell-based; details: for SI (selectivity index): IC50(NIH/3T3)/IC50(A549); for IC50: Mus musculus, NIH3T3, cytotoxicity, NIH/3T3 cells, MTT (called CC50 in method)
Method: The antiproliferative activity of 1,2,3-triazole tethered dihydroartemisinin-isatin hybrids 8a-c and 9a-k against A549, multidrug-resistant A549/DOX and A549/DDP lung cancer cell lines as well as cytotoxicity towards mouse embryonic fibroblast cells NIH/3T3 were assessed by 3-(4,5-dimethylthiazol-2-yl)-2,5-diphenyltetrazolium bromide (MTT) assay, and half maximal inhibitory concentration (IC50) values were listed in Table 2.
The cytotoxicity (CC50) of the synthesized 1,2,3-triazole tethered dihydroartemisinin-isatin hybrids 8a-c and 9a-k were examined by the MTT assay in mouse embryonic fibroblast cells NIH/3T3. The compounds were dissolved in DMSO with concentrations from 1,024 to 1 μg/ml. The NIH/3T3 cells were maintained in culture medium at 37°C under 5% CO2 atmosphere. Cells were seeded in 96-well plates (1 × 10^4 cell per well) and allowed to recover for 24 h. After 72 h of exposure, cells were harvested and cell viability was assessed by MTT assay. The CC50 values were calculated by Bliss analy.

[3] = system: cisplatin-resistant A549 (A549/DDP) lung cancer cells; assay: MTT antiproliferative assay, A549/DDP; type: cell-based; details: A549/DDP
Method: as §1

[4] = Stability in human liver microsomes; type: in vitro ADME
Method: (§2) The metabolic stability of selected hybrids 8a,c and 9i was assessed in mouse and human microsomes, and the results were listed in Table 3.

[5] = system: doxorubicin-resistant A549 (A549/DOX) lung cancer cells; assay: MTT antiproliferative assay, A549/DOX; type: cell-based; details: Homo sapiens
Method: as §1

[6] = Stability in mouse liver microsomes; type: in vitro ADME
Method: as §2

[7] = Pharmacokinetics in CD-1 mice; type: in vivo; details: mouse, plasma, 30 mg/kg, single intravenous administration; for clearance: read-out: Cl (clearance rate) (converted); for bioavailability: read-out: F (bioavailability); for Tmax: read-out: tmax (peak time) (converted)
Method: The pharmacokinetic behavior of hybrids 8a,c was determined in CD-1 mice model by single intravenous administration with dose of 30 mg/kg.
CD-1 mice (20–25 g) were used in the pharmacokinetic study, and each treatment group had 3 mice which were dosed with hybrids 8a,c suspension at 30 mg/kg by single intravenous administration. Compounds were suspended in 0.5% CMC for iv, and blood was collected from the jugular vein of each mouse at the following time points: 0.25, 0.5, 1, 2, 4, 6, 8 and 24 h after intravenous administration. Total area under the concentration time curve (AUC), the elimination half-time (t1/2), the peak concentration (Cmax) and the time to reach peak concentration (Tmax) of samples were determined directly from the experimental data using WinNonlin V6.2.1.

[8] = Stability in mouse/human microsomes, pooled range; type: in vitro ADME
Method: as §2

[9] = Homo sapiens, range over A549 and A549/DOX, read-out: IC50, range over A549 and A549/DOX
[10] = range over the three lung cancer cell lines, read-out: IC50, range over A549, A549/DOX and A549/DDP

Compound	IC50 (A549 lung cancer cells)	IC50 [1, 9]	IC50 [1, 10]	SI (selectivity index) [2]	IC50 [2]	IC50 [3]	Liver microsomes, Human [4]	IC50 [5]	Liver microsomes, Mouse [6]	AUC [7]	Cmax [7]	half-life [7]	clearance [7]	bioavailability [7]	Tmax [7]	Liver microsomes, range over mouse and human [8]
C[C@@H]1CC[C@H]2[C@@H](C)C(OCc3cn(CCN4C(=O)C(=NO)c5cc(F)ccc54)nn3)O[C@@H]3O[C@@]4(C)CC[C@@H]1[C@]32OO4 (stereo partly drawn) [9i, 5-fluoro-3-(hydroxyimino)-1-(2-(4-((((3R,5aS,6R,8aS,9R,12R,12aR)-3,6,9-trimethyldecahydro-12H-3,12-epoxy[1,2]dioxepino[4,3-i]isochromen-10-yl)oxy)methyl)-1H-1,2,3-triazol-1-yl)ethyl)indolin-2-one]	9.1 µM	7.54 to 15.9 µM	9.1 to 15.9 µM	>11.0	> 100 µM	14.3 µM	60%	15.9 µM	46%							
C[C@@H]1CC[C@H]2[C@@H](C)C(OCc3cn(CCN4C(=O)C(=O)c5ccccc54)nn3)O[C@@H]3O[C@@]4(C)CC[C@@H]1[C@]32OO4 (stereo partly drawn) [8a, 1-(2-(4-((((3R,5aS,6R,8aS,9R,12R,12aR)-3,6,9-trimethyldecahydro-12H-3,12-epoxy[1,2]dioxepino[4,3-i]isochromen-10-yl)oxy)methyl)-1H-1,2,3-triazol-1-yl)ethyl)indoline-2,3-dione]	8.32 µM	7.54 to 15.9 µM	7.54 to 12.1 µM	>12.0	> 100 µM	10.7 µM	68%	12.1 µM	77%	883 ng·h/mL	6.4 µM	3.7 h	38.5 mL/min/kg	35.6%	0.2 h	68–83%
C[C@@H]1CC[C@H]2[C@@H](C)C(OCc3cn(CCN4C(=O)C(=O)c5cc(F)ccc54)nn3)O[C@@H]3O[C@@]4(C)CC[C@@H]1[C@]32OO4 (stereo partly drawn) [8c, 5-fluoro-1-(2-(4-((((3R,5aS,6R,8aS,9R,12R,12aR)-3,6,9-trimethyldecahydro-12H-3,12-epoxy[1,2]dioxepino[4,3-i]isochromen-10-yl)oxy)methyl)-1H-1,2,3-triazol-1-yl)ethyl)indoline-2,3-dione]	7.54 µM	7.54 to 15.9 µM	7.54 to 12.1 µM	>13.2	> 100 µM	8.77 µM	83%	9.89 µM	71%	654 ng·h/mL	12.5 µM	4.2 h	52.7 mL/min/kg	27.5%	0.2 h	68–83%
